Patent US20190380965A1 (priority 2018, published 2019)
Read-outs that look alike come from different tables or passages of the source.

Format: physicochemical
Details: for drug dissolved in water: 500 mg flucytosine added to 10 mL water
Experimental: The powder and granule pharmaceutical compositions of the present invention dissolve or suspend when added to water quickly. This pharmaceutical composition is therefore termed as “quick water-dispersing”. The term “quick” herein is defined as less than 2 to 3 minutes when shaken gently. In other words, when the granules are added to water, and gently mixed, a suspension is formed in less than 2 to 3 minutes. The “quick water-dispersing” property was achieved by selecting a correct particle size of suspending agent(s) which is the novelty of this invention. The suspension is achieved by simple mixing of powder in water—without use of complex instruments which are available in the home-environment to patients. […] After reaching the gastro-intestinal tract, the remaining drug dissolves. The pharmaceutical compositions according to the present invention provide for an immediate release of the Flucytosine from the dosage form.
USP II apparatus were used and UV-visible spectrometer was used for quantification of Flucytosine from dissolution. […] When we combine other antifungal agents in this formulation, the dissolved fraction of flucytosine will change.

Nc1nc(=O)[nH]cc1F [Flucytosine, 5-fluorocytosine]
drug dissolved in water: about 150 mg | drug dissolved in water (listed as flucytosine): 150 mg | water needed to dissolve the drug (dose of 500 mg flucytosine): 33.3 mL
